Values quoted from earlier work, collected in US20100291221A1, “Method of administering dose-sparing amounts of formoterol fumarate-budesonide combination particles by inhalation” (priority 2009, published 2010).

Assays:
[1] = 9 ug Formoterol Fumarate alone (2 puffs); first treatment day
adult asthmatics = details: inhaled

COc1ccc(C[C@@H](C)NC[C@H](O)c2ccc(O)c(NC=O)c2)cc1.COc1ccc(C[C@@H](C)NC[C@H](O)c2ccc(O)c(NC=O)c2)cc1.O=C(O)/C=C/C(=O)O [Formoterol Fumarate, formoterol fumarate]
Change in FEV1 at 15 minutes [1]: 11%
Change in FEV1 at 120 minutes [1]: 18%
Minimum efficacy dose (adult asthmatics; adult asthmatics): approximately 4 micrograms
Level at which systemic b2 agonist effects begin to occur (adult asthmatics): above 12 micrograms
